# Results: patent US11850266B2, “Cardiomyocytes and compositions and methods for producing the same” (President and Fellows of Harvard College, priority 2019, dated 2023)
# Tests used:
# [1] = system: iPSC-derived cardiomyocytes; assay: Western analysis of protein expression in iPSC-derived cardiomyocytes; format: cell-based, human
# Protocol: To prepare for differentiation, iPSCs were plated at a density between 20,000 to 80,000 cells (depending on the cell line) per well of a 12-well plate at four days prior to onset of differentiation. Cells were differentiated according to the protocol previously described by Lian et al. with some modifications (FIG. 1A) (1). Basal media was changed from StemFlex to RPMI/B27 on day 0 of differentiation. The GSK3 inhibitor, CHIR99021 (6 μM), was added for 48 hours from day 0 to day 2 of differentiation when cells were approximately 70-80% confluent. The Wnt antagonist IWP4 (5 μM) was added from days 2 to 4 of differentiation. Insulin (10 μg/ml) was added to the media starting on day 7 of differentiation, and media was changed every 2-3 days. In general, higher purity (TNNT2+) cardiomyocytes were observed when beating initiated prior to day 10 of differentiation, therefore only batches with onset of beating between days 7-10 of differentiation were included in this study. Beating cardiomyocytes were treated with Torin1 (200 nM, unless otherwise noted) or vehicle (0.02% dimethylsulfoxide (DMSO)) beginning at ˜2 days after onset of beating for 7 days (media changed with fresh Torin1 or DMSO every 2-3 days), unless otherwise noted. After Torin1 treatment, media was switched back to RPMI/B27/insulin and maintained with media change every 2-3 days until endpoint assay. In a few assays, fatty acids were added in the form of chemically defined lipids (Gibco) diluted 1:1000 simultaneous with Torin1 treatment. In some other assays, fetal bovine serum (10% FBS) was added to cells after completion of Torin treatment for 2-4 days.
# Cells were lysed with lysis buffer (1% Triton X, 0.35% Na-deoxycholate, 1 mM EDTA, 1% protease inhibitor cocktail (Sigma), 1% phosphatase inhibitor cocktail 2 (Sigma), 1% phosphatase inhibitor cocktail 3 (Sigma), 1 mM phenylmethylsulfonyl fluoride (PMSF)) and total protein was measured with the Pierce BCA Protein Assay Kit. Samples with equal total protein quantities (prepared in Laemmli Sample Buffer (Bio-Rad)) were loaded into a Mini-Protean TGX Precast Gel (Bio-Rad) and electrophoresed for 1 hour at 100 V before transfer to a PVDF membrane using the Trans-Blot Turbo Transfer System (Bio-Rad). The Precision Plus Protein Dual Color Standards molecular weight ladder was used to estimate molecular weight of detected bands (Bio-Rad). Membranes were blocked with 5% milk or bovine serum albumin then incubated with the primary antibody (Table 2) overnight at 4 degrees C. followed by incubation with the horseradish peroxidase-conjugated secondary antibody (Table 2) for 1 hour at room temperature. The Amersham ECL Western Blotting Detection kit was used to detect the protein signal by chemiluminescence, and band densities were quantified using ImageJ software (NIH).
# [2] = system: iPSC-derived cardiomyocytes; assay: NanoString PanCancer Pathways Panel gene expression; format: cell-based, human; conditions: Torin1 200 nM 1 week, Gibco iPS-CMs, FIG. 7G
# Protocol: Gene expression analysis was performed using NanoString technology which employs an optical counting method of fluorescently barcoded RNA according to the manufacturer's instructions. The nCounter PanCancer Pathways Panel was selected to provide a multiplex analysis of 770 genes from several growth and cell cycle-related pathways, including cell cycle, apoptosis, Wnt, transcriptional regulation, PI3K, and TGF-β. This panel was selected to provide a multiplex analysis of pathways associated with cell cycle regulation, metabolism, quiescence and senescence. Cardiomyocytes were differentiated in a 12-well plate then cardiomyocytes were treated with Torin1 (200 nM) or vehicle (DMSO) starting ˜2 days after onset of beating for 1 week (days 9-16 for this batch). After completion of Torin1 treatment, cells were switched back to maintenance media (RPMI+B27+insulin). Beginning on day 18 of differentiation, 10% fetal bovine serum (FBS) was added to half of the wells per treatment group and FBS treatment was continued for 4 days (until day 22 of differentiation). […] Data were analyzed using nSolver 4.0 software with the Advanced Analysis Module 2.0 with normalization to internal housekeeping genes including in the panel to perform unsupervised hierarchical clustering, differential expression analyses, and pathway scoring using the R statistical package.
# [3] = Torin1 0-200 nM 4 days prior to harvest on day 22, BJRiPS, FIG. 11
compound,measurement,setting,value
CCC(=O)N1CCN(c2ccc(-n3c(=O)ccc4cnc5ccc(-c6cnc7ccccc7c6)cc5c43)cc2C(F)(F)F)CC1 [Torin1],TNNI1 protein levels,"[1]; FIG. 2B, RNA levels not increased",increase in TNNI1 protein levels
same,GATA4 protein expression,[1]; FIG. 5A,trend toward increased protein expression
same,expression of fatty acid receptor CD36,"[1]; FIG. 13C, BJRiPS-CM",trend toward increased expression
same,p21 protein expression,"[1]; Torin1 0, 10, 50, 200 nM 7 days, FIG. 5A",dose-dependent decrease
same,p53 protein (total and phosphorylated),"[1]; Torin1 0, 10, 50, 200 nM 7 days, Gibco iPS-CM, FIG. 5A",dose-dependent increase
same,"TNNI3 protein, late treatment",[1]; [3],increases expression of TNNI3
same,"p21 protein, late treatment",[1]; [3],decreases expression of p21
same,TNNTI3 by western analysis,"[1]; Torin1 10, 50, 200 nM 4 days, BJRiPS, FIGS. 18F-18G",significant increase in TNNTI3
same,"TNNI3 protein (western, densitometry)","[1]; Torin1 10, 50, 200 nM, 4 days, days 25-29, BJRiPS, FIG. 31",increased protein expression
same,TNNT2 and TNNI3 protein expression by western analysis,"[1]; Torin1 7 days, Gibco iPS-CMs, FIG. 2B",dose-dependent increase
same,expression of interleukin-8 (IL8) and SPP1 (osteopontin),[2],significant decrease in expression
